Data set [1] concerns Normal human epidermal melanocytes (NHEMs). The data set can be described thus: Melanin induction in normal human epidermal melanocytes. Format: cell-based. Here is the method: Normal human epidermal melanocytes (NHEMs) were examined for induction of melanogenesis using cells and media from Clonetics Corporation (San Diego, Calif.). Cells were cultured exactly as specified by the supplier.

In data set [2] the test system is Cloudman S91 mouse melanoma cell line. Description: Melanin content of S91 cells after treatment with test compound. In kind it is cell-based. The procedure:
The Cloudman S91 mouse melanoma cell line was obtained from American Type Culture Collection (ATCC). […] For testing propylene glycol and analogues for induction of melanogenesis, S91 cells were plated at 10^5 cells/35 mm dish in 10% calf serum. […] Cells were cultured for 6 days at 37° C. in 5% CO2 in a humidified incubator. Following this treatment period, cells were examined microscopically and the portion of dedifferentiated and differentiated cells was estimated.
Following this microscopic examination, cells were detached from dishes by trypsin. The time required for detachment by trypsin was recorded as an additional indicator of the phenotypic effects of test compounds. For each treatment, a subsample of cells was counted to determine the effects of treatment compounds on cellular proliferation. The remainder of cells were used for determination of melanin content. […] Absorbance of standards and samples was measured at 475 nm. Melanin was expressed as pg melanin/cell.

The subject of data set [3] is American short-haired guinea pigs. The data set can be described thus: Topical melanogenesis (pigmentation rating) in guinea pigs. Set-up: Pigmentation Rating / Pigmentation Rating Background Corrected: scale not given here. In kind it is in vivo, guinea pig. As to conditions: for relative melanogenesis rating (mean ±SE), scale 0-4: 25 μl twice per day for 5 days, rated two weeks after, full strength solutions. Here is the method:
Compounds were tested for melanogenic activity in vivo by application to American short-haired guinea pigs. Treatment sites were created by removal of fur using Nair® brand depilatory. In the Table, the numbers presented are the relative melanogenesis rating (mean ±SE), and are arranged according to the relative location on the animal, with the head being to the left and the tail being to the right. Propylene glycol (PG=13.6M), 2,3-butanediol (2,3-BD=10.95M), and 1,2-cis-cyclopentanediol (1,2-cs-CPD=10.7M) were applied as full strength solutions. 3,3-dimethyl-1,2-butanediol (3,3-M-1,2-BD) was applied as a 4M solution dissolved in ethanol. Two weeks following cessation of treatments, the degree of pigmentation was subjectively rated according to the following scale:
In order to minimize the effects of dimunition of response from head to tails of animals, all future experiments were done using only treatment spots located towards the tails of animals (c and d in Table 7). Deemed as additionally beneficial, in this area of the animal differences of responsiveness to strong and weak inducers of pigmentation, as deduced from cell culture, were greatest. […] Pigmentation ratings were corrected for background (control treatment spots), normalized to 1M to account for the different amounts of each agent applied, and then normalized to results for 1,2-PG (Table 8). […] It is anticipated that further improvements in formulation will additionally improve responsiveness to 5-NBene-2,2-DM and other compounds in this invention.
In FIG. 5, a, b, c and d indicate treatment spots that transverse the anterior-posterior axis along the backs of guinea pigs.

Data set [4] concerns Cloudman S91 mouse melanoma cell line. The data set can be described thus: Cell count (proliferation, toxicity) of treated S91 cells. In kind it is cell-based. The procedure: (§1) The Cloudman S91 mouse melanoma cell line was obtained from American Type Culture Collection (ATCC). Cells were cultured in Dulbecco's Modified Eagles Medium (DMEM) containing 10% calf serum, 2 mM L-glutamine, 10 U Penicillin/ml and 10 ug Streptomycin/ml according to a previously published protocol (Eller, et al., Proc. Natl. Acad. Sci. 93:1087-92. 1996). For testing propylene glycol and analogues for induction of melanogenesis, S91 cells were plated at 10^5 cells/35 mm dish in 10% calf serum. One day after plating, media was removed and replaced with media containing 2% calf serum and test compounds (Eller, et al., 1996). Cells were cultured for 6 days at 37° C. in 5% CO2 in a humidified incubator. Following this treatment period, cells were examined microscopically and the portion of dedifferentiated and differentiated cells was estimated. Previous studies have shown that dedifferentiated S91 cells have a rounded, spindly appearance while differentiated S91 cells have a flattened, cuboidal, multipolar and dendritic appearance (Orlow, et al., Exp. Cell Res. 191:209-218, 1990).
(§2) Following this microscopic examination, cells were detached from dishes by trypsin. The time required for detachment by trypsin was recorded as an additional indicator of the phenotypic effects of test compounds. For each treatment, a subsample of cells was counted to determine the effects of treatment compounds on cellular proliferation. The remainder of cells were used for determination of melanin content. Melanin was extracted from cells by vortexing for 15 min in 1N NaOH. Standards were prepared by dissolving melanin (Sigma) in 1 N NaOH (Eller, et al., 1996). Absorbance of standards and samples was measured at 475 nm. Melanin was expressed as pg melanin/cell.

Data set [5] shares this test system. The data set can be described thus: Trypsinization detachment time of S91 cells. In kind it is cell-based. The procedure:
as §2

For data set [6] the test system is unchanged. The data set can be described thus: Microscopic morphology (differentiation) of S91 cells. In kind it is cell-based. The procedure: as §1
For data set [7], the system named is nitric oxide in cell-free media from S91 cells. Description: Nitric oxide in cell-free media from S91 cells (Greiss reagent). In kind it is cell-based, mouse. As to conditions: 4 days. Here is the method:
In a related experiment, nitric oxide was measured in cell-free media from S91 cells following treatment with a range of concentrations of 2,3-cis/exo-pinanediol or 5-norbornene-2,2-dimethanol for 4 days. In biological fluids, nitric oxide is converted into nitrite and nitrate with seconds of production. Therefore, nitric oxide is measured by first converting nitrate to nitrite using nitrate reductase, followed by addition of Greiss reagent to detect nitrite as optical density at 550 nm (Moshage, et al., 1995, Clin. Chem. 41:892-896; Schmidt, et al., 1995, Biochemica 2:22)). […] Moreover, the relative melanogenic potency of 2,3-cis/exo-pinanediol and 5-norbornene-2,2-dimethanol shown in FIG. 5 paralleled the relative potency of these compounds with regards to induction of nitric oxide (Table 17). […] It follows that measurement of induction of nitric oxide, cGMP or PKG may provide biochemically relevant screening assays for compounds that may be melanogenic. Thus, the utilization of these assays to screen compounds for melanogenic activity is claimed in the present invention.

In data set [8] the test system is tyrosinase activity in S91 mouse melanoma cells. The data set can be described thus: Induction of tyrosinase activity in S91 cells. As to conditions: for more tyrosinase activity than 5-norbornene-2,2-dimethanol: calculated from data in FIG. 5.
Protocol: Compounds were examined for their ability to induce tyrosinase activity in S91 mouse melanoma cells. […] Following treatments, cells were trypsinized, counted by Coulter, pelleted by centrifugation at 1000×g, and analyzed for tyrosinase activity using modifications of previously described procedures (Pomerantz, S. H., 1966, J. Biol. Chem. 241:161-168; Jara, et al., 1988, Pigment Cell Res. 1: 332-339.). Briefly, cell pellets were solubilized by sonicating for 5 seconds in 600 ul 50 mM phosphate buffer pH 6.8 containing 0.5% Triton-X100, followed by vortexing, incubation on ice for 30 min, and then revortexing. From this, 200 ul aliquots were combined with 200 ul of reaction mixture containing either 75 uM tyrosine, 75 uM L-Dopa, and 2 uCi L-[3,5-^3H]Tyrosine in 50 mM NaPO4 pH 6.8 (L-Dopa+), or, 75 uM tyrosine, and 2 uCi L-[3,5-^3H]Tyrosine in 50 mM NaPO4 pH 6.8 (L-Dopa−) and incubated 1 hr at 37° C. Reactions were stopped by addition of 400 ul 10% activated charcoal in 0.1N HCl and incubation on ice for 15 min. This mixture was centrifuged at 17,300×g for 5 min, and 400 ul supernatant was then filtered through a 0.22 uM GV Durapore centifugal filter unit (Millipore) by centrifuging at 17,300×g for 5 min. Filtrate was added to 4 ml Fisher Plus scintillation fluid and counted on a Hewlett Packard scintillation counter. Tyrosinase activity was calculated as dpm/hr/ug protein and dpm/hr/10^3 cells. Each sample was analyzed with and without L-Dopa, a necessary cofactor for tyrosinase (Pomerantz, S. H., 1966, J. Biol. Chem. 241:161-168; McLane, et al., 1987, Biochem. Biophys. Res. Commun. 145:719-725). All reported tyrosinase values are exclusive of counts that occurred in buffer blanks and L-dopa negative aliquots. Protein was determined on aliquots of cell lysate, extracellular particulate lysate or media by the Bradford Coomassie Blue method (Bradford, 1967, Anal. Biochem. 72:248-254) using Bio-Rad Protein Assay Kit I.
Setting [9] is: No Penetration Enhancer, concentrations as E85.
Where [10] appears, read: range of concentrations up to a toxic dose.

As to `CC(C)(O)C(C)(C)O` [2,3-M-2,3-BD, 2,3-dimethyl-2,3-butanediol], the “Concentration Required for ≧1.5-fold Melanin Induction in NHEMs” value in data set [1] was determined as 50 mM. In addition, the “Concentration Required for ≧2-fold Melanin Induction in S91 Cells” value in data set [2] is listed as 25 mM. Moreover, in data set [3] (setting [9]), the “Pigmentation Rating Normalized to 1,2-PG” value stood at 1.0 ± 0.6 and the “Pigmentation Rating Normalized to 1M” value came to 0.015 ± 0.008. In data set [3] (No Penetration Enhancer, corrected for Nair control, concentrations as E85), the “Pigmentation Rating Background Corrected” value is 0.17 ± 0.09. The “Pigmentation Rating” value in data set [3] (No Penetration Enhancer, sites c and d, 13.61M 1,2-PG, 11.0M 2,3-M-2,3-BD, 11.3M 2-M-1,3-PG, 8.7M 1,2-cs-CPD, 4.0M 3,3-M-1,2-BD) was 0.25 ± 0.14. Besides, the “pigmentation response versus control (Nair or 2% 2P treated) spots” value in data set [3] (sites towards tail, 13.61M 1,2-PG, 10.6M 1,2-PG/2% 2P, 11M 2,3-dimethyl-2,3-butanediol) is listed as “not significantly different from control”.
As for `O=C[C@H](O)[C@H](O)[C@H](O)CO` [D-ribose], the “melanin induction in NHEMs (in words)” value in data set [1] (setting [10]) is “inactive”. For the same compound, the “melanogenesis in S91 cells (≧2-fold increase = significant)” value in data set [2] (setting [10]) is recorded as “did not induce significant (≧2-fold increase) melanogenesis”.
As for `OCC(O)CO` [G, Glycerol], the “Cells (×10^6)” value in data set [4] (50 mM) is reported as 0.092 ×10^6; in data set [4] (150 mM), 0.084 ×10^6. The “Trypsinization Detachment Time” value in data set [5] (50 mM) and in data set [5] (150 mM) was 3 min in each case. In addition, the “pg Melanin/Cell” value in data set [2] (50 mM) worked out at 11.2 pg Melanin/Cell; in data set [2] (150 mM), 13.0 pg Melanin/Cell. Besides, the “ug Melanin” value was determined as 1.03 µg in data set [2] (50 mM) and 1.09 µg in data set [2] (150 mM). For the same compound, in data set [2] (concentrations tested in Example 2), the “induction of melanogenesis (in words)” value was “only a slight effect on melanogenesis and differentiation”. The “Morphology Rounded Spindly” value in data set [6] (50 mM) stood at 100%; in data set [6] (150 mM), 75%. For the same compound, the “Morphology Flattened Cuboidal” value in data set [6] (150 mM) is 25%.
`CC(O)C(C)O` (stereo not shown) [BD-2,3, 2,3-butanediol]: the “Cells (×10^6)” value in data set [4] (50 mM) is 0.072 ×10^6; in data set [4] (150 mM), 0.040 ×10^6. Besides, the “reduction of cell numbers” value in data set [4] (150 mM) was “one-third”. For the same compound, the “Trypsinization Detachment Time” value in data set [5] (50 mM) amounted to 3 min; in data set [5] (150 mM) it was 9 min. In addition, the “Concentration Required for ≧2-fold Melanin Induction in S91 Cells” value in data set [2] came to 100 mM. The “pg Melanin/Cell” value in data set [2] (50 mM) worked out at 15.6 pg Melanin/Cell; in data set [2] (150 mM) it was 23.8 pg Melanin/Cell. In addition, the “ug Melanin” value in data set [2] (50 mM) stood at 1.12 µg; in data set [2] (150 mM) it was 0.95 µg. The “melanogenesis in guinea pigs (in words)” value in data set [3] (same relative body position) is “only slightly better melanogenic agents than propylene glycol”. Moreover, the “relative melanogenesis rating (mean ±SE), scale 0-4” value in data set [3] (site b) was 1.33 ± 0.17^2; in data set [3] (site d (tail)), 0.25 ± 0.14. The “Morphology Flattened Cuboidal” value in data set [6] (50 mM) was found to be 75%; in data set [6] (150 mM) it was 100%. The “Morphology Rounded Spindly” value in data set [6] (50 mM) came out at 25%.
For the compound `CC1(C)[C@@H]2C[C@H]1[C@@](C)(O)[C@@H](O)C2` (relative stereo) [2,3-cs/ex-PD, 2,3-cis/exo-pinanediol ([1R,2R,3S,5R]-[−]-pinanediol)], the “Cells (×10^6)” value in data set [4] (0.5 mM, 4 days, X ± SE, n = 3) is given as 0.325 ± 0.002 ×10^6; in data set [4] (1 mM, 4 days, X ± SE, n = 3) it was 0.258 ± 0.010 ×10^6; in data set [4] (2.5 mM, 4 days, X ± SE, n = 3), 0.099 ± 0.014 ×10^6; in data set [4] (5 mM, 4 days, X ± SE, n = 3), 0.064 ± 0.006 ×10^6. Further, the “nmoles NO/10^6 Cells” value stood at 10.9 ± 0.2 nmoles NO/10^6 Cells in data set [7] (0.5 mM), 24.5 ± 5.4 nmoles NO/10^6 Cells in data set [7] (1 mM), 131 ± 15 nmoles NO/10^6 Cells in data set [7] (2.5 mM) and 174 ± 15 nmoles NO/10^6 Cells in data set [7] (5 mM). For the same compound, the “uM NO” value in data set [7] (0.5 mM) worked out at 3.54 ± 0.06 µM; in data set [7] (1 mM), 6.36 ± 1.56 µM; in data set [7] (2.5 mM), 12.6 ± 0.5 µM; in data set [7] (5 mM), 11.0 ± 1.1 µM. Also, the “Pigmentation Ratings (X ± SE; n = 6; scale 0 to +4)” value in data set [3] (spot a (anterior), 8.7M 1,2-cis-CPD in 20% ETOH, 1M 5-NBene-2,2-DM in 8.5 M propylene glycol, 2% 2-pyrrolidone, 20% ETOH, 1M 2,3-cs/ex PD in 50% ETOH) stood at 2.00 ± 0.20; in data set [3] (spot b, formulations as E220) it was 1.75 ± 0.17; in data set [3] (spot c, formulations as E220) it was 1.75 ± 0.17; in data set [3] (spot d (posterior), formulations as E220), 1.04 ± 0.32. Besides, the “Fold Induction of Tyrosinase Relative to Controls” value is 5.1X in data set [8] (0.5 mM (Table 19)), 17.6X in data set [8] (1 mM (Table 19)), 119X in data set [8] (2.5 mM (Table 19)) and 50.6X in data set [8] (5 mM (Table 19)). The “more tyrosinase activity than 5-norbornene-2,2-dimethanol” value in data set [8] (500 uM) is reported as 2.6 fold; in data set [8] (1 mM) it was 5.2 fold; in data set [8] (2.5 mM), 7.3 fold. Further, in data set [8] (Table 19 data), the “relative melanogenic potency in S91 cells (in words)” value is given as “only slightly more potent than (1S, 2S, 3R, 5S)-(+)-pinanediol”.

Values taken from patent US7250157B2, “Dermatological compositions and methods” (Applied Genetics Incorporated Dermatics, priority 1996, dated 2007).
